What was measured:
NIH3T3 cell line = test system: NIH3T3 cell line; parameters: method as in PMID 23142671; conditions: read-out: IC50 against NIH3T3 cell line; cited from earlier work
Candida = test system: Candida; parameters: method as in PMID 23142671; conditions: cited from earlier work
[1] = test system: Botrytis cinerea strain FBc05; assay: In vitro antifungal activity, mycelial growth inhibition on PDA medium; assay type: cell-based; conditions: screening at basal 50 µg/mL, PDA medium, mean ± SD of three determinations
Experimental: (§1) The cultures of Botrytis cinerea strain FBc05 and Sclerotinia sclerotiorum strain FSc10 were obtained from the collection of the Division of Plant Pathology and Mycology at the Department of Plant Protection of Wroclaw University of Environmental and Life Sciences (Poland). Cerrena unicolor (Bull.ex.Fr.) Murr, strain no. 139, originated from the culture collection of the Department of Biochemistry, University of Lublin (Poland). The stock cultures were maintained on potato dextrose agar at +4 °C and periodically transferred to a fresh medium.
(§2) Prior to the fungicidal activity assay of hydrazide–hydrazones 1–35, we considered ethanol and DMSO as potential dissolution media for tested compounds. […] Furthermore, a very important aspect of biological testing is the careful selection of organic solvents. These are typically used, e.g., methanol, ethanol, acetone, and DMSO, and may be highly toxic for microorganisms in even very low concentrations, such as 1% (v/v). Ethanol and DMSO with a final concentration between 0.1 and 1.0% (v/v) in a PDA medium were used and applied to evaluate the inhibition growth of B. cinerea, S. sclerotiorum, and C. unicolor (see Supplementary Materials). The following procedure was applied to the microorganism testing. The assays of fungi inhibition growth were performed at a basal concentration of 50 µg/mL for all compounds, and detailed experiments were extended for testing between 0 and 50 µg/mL (0, 6.25, 12.5, 25.0, and 50.0 µg/mL) for selected compounds. The tests were carried out on Petri dishes (diameter 60 mm) with PDA medium containing appropriate compound, co-solvent control, and hydrazide–hydrazone dissolved in co-solvent assay. A piece of mycelium with a 5 mm edge taken from the outer edge of the growing fungi on the PDA plate with co-solvent was transferred to a central part of the PDA plate with the examined compound. The plates thus inoculated were incubated at 22 °C in the dark for a time when the control plate containing only the co-solvent was covered entirely with the tested microorganism. For B. cinerea and S. sclerotiorum, the test took 3 days, and for C. unicolor, it took 7 days. Each assay was performed at least in triplicate. […] Model parameters c and e were estimated using the nonlinear least-squares method. Parameters d and b (with two exceptions) were fixed and assumed to be equal. Based on estimated parameters, the values of IC50 were determined. […] The IC50 values were calculated only in cases when the model predicted a decrease in growth rate by more than 50%.
(§3) In vitro antifungal activity
(§4) Prior to the fungicidal activity assay of hydrazide-hydrazones 1–35, we considered ethanol (EtOH) and DMSO as potential dissolution media for tested compounds.
(§5) EtOH and DMSO with a final concentration between 0.1–1.0% (v/v) in a PDA medium were applied to evaluate the inhibition growth of B. cinerea, S. sclerotiorum, and C. unicolor (see Table S3). The following procedure was applied to the microorganism testing with the hydrazide-hydrazones. The assays of fungi inhibition growth were performed at a basal concentration of 50 µg/mL for all compounds, and detailed experiments were extended for testing selected molecules 18, 19, 27, […]
(§6) Table S2. In vitro antifungal activity for DMSO and ethanol co-solvents.

[2] = test system: Sclerotinia sclerotiorum strain FSc10; assay: as above; assay type: cell-based; conditions: screening at basal 50 µg/mL, PDA medium, mean ± SD of three determinations
Experimental: as §1, §2, §3, §4, §5, §6

[3] = test system: Cerrena unicolor strain no. 139; assay: as above; assay type: cell-based; conditions: Cerrena unicolor, NO.139; screening at basal 50 µg/mL, PDA medium, mean ± SD of three determinations; read-out: fungal growth inhibition, C. unicolor
Experimental: as §1, §2, §3, §4, §5, §6

[4] = molecular target: laccase from Trametes versicolor; assay: Laccase inhibition kinetic study; assay type: biochemical; conditions: determined in this study for 32 (table cites [75]), SD = 5.75 (%)
Experimental: The inhibition constant for 32 was determined according to procedures and calculations reported previously using commercially available laccase from Trametes versicolor (Sigma-Aldrich).

SMILES | IC50 (NIH3T3 cell line) [µM] | MIC, anticandidal activity (Candida) [µg/mL] | melting point | fungal growth inhibition, B. cinerea [1] | fungal growth inhibition, S. sclerotiorum [2] | inhibition of growth at 50 µg/mL [3] [%] | Ki [4] [µM]
Cn1nnnc1SCC(=O)N/N=C/c1ccc(O)cc1 [II] | 632 | 500 to 1000 | – | – | – | – | –
O=C(N/N=C/c1c(O)cc(O)c(/C=N/NC(=O)c2ccc(O)cc2)c1O)c1ccc(O)cc1 [compound 32, N′,N″-[(2,4,6-trihydroxy-1,3-phenylene)di-(E)-methanylylidene]bis(4-hydroxybenzohydrazide)] | – | – | 223 to 226 °C (dec.) | n.o. | n.o. | 14.3 ± 2.7 | 194

From publication PMC11124341, “4-Hydroxybenzoic Acid-Based Hydrazide–Hydrazones as Potent Growth Inhibition Agents of Laccase-Producing Phytopathogenic Fungi That Are Useful in the Protection of Oilseed Crops” (Molecules, 2024)
